From patent publication US10392630B2, “Plants having increased tolerance to herbicides” (BASF AGRO B.V., priority 2013, dated 2019)
Where a chain is given by its changes, count along the chain named.

Key:
Assay in all cases: biochemical
[1] = biological target: T1, Amaranthus mutant PPO (AMARE) (Amaranthus tuberculatus, UniProt Q0NZW9, F420M/R128L)
T1 sequence (Q0NZW9 1-534 R128L/F420M): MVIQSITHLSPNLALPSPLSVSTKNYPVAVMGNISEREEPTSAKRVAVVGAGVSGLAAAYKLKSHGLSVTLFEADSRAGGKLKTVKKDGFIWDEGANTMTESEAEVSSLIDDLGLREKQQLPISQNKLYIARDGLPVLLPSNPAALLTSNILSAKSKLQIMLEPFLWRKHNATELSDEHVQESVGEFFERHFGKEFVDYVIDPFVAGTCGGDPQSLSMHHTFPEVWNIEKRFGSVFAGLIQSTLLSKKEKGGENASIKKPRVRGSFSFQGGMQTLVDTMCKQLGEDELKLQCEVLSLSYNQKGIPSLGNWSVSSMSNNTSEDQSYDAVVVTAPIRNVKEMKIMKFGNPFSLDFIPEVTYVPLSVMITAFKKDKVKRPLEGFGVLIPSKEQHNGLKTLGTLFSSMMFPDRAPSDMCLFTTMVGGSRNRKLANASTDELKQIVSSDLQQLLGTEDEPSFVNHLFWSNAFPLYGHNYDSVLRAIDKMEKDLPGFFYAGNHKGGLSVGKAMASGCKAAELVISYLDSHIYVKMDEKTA

[2] = biological target: T2, Amaranthus mutant PPO (AMARE) (Amaranthus tuberculatus, UniProt Q0NZW9, F420V/R128I)
T2 sequence (Q0NZW9 1-534 R128I/F420V): T1 sequence (Q0NZW9 1-534 R128L/F420M) with L128I, M420V

[3] = biological target: T3, Amaranthus mutant PPO (AMARE) (Amaranthus tuberculatus, UniProt Q0NZW9, F420M/R128I)
T3 sequence (Q0NZW9 1-534 R128I/F420M): T1 sequence (Q0NZW9 1-534 R128L/F420M) with L128I

[4] = biological target: T4, Amaranthus mutant PPO (AMARE) (Amaranthus tuberculatus, UniProt Q0NZW9, F420I/R128I)
T4 sequence (Q0NZW9 1-534 R128I/F420I): T1 sequence (Q0NZW9 1-534 R128L/F420M) with L128I, M420I

[5] = biological target: T5, Amaranthus mutant PPO (AMARE) (Amaranthus tuberculatus, UniProt Q0NZW9, F420I/R128L)
T5 sequence (Q0NZW9 1-534 R128L/F420I): T1 sequence (Q0NZW9 1-534 R128L/F420M) with M420I

Row | SMILES | IC50 [1] | IC50 [2] | IC50 [3] | IC50 [4] | IC50 [5]
1 | C#CCN1C(=O)C(F)(F)Oc2cc(F)c(-n3c(=O)n(C)c(=S)n(C)c3=O)cc21 [BAS 850H] | 246 nM | 424 nM | 246 nM | 433 nM | 1230 nM
2 | CC(C)N(C)S(=O)(=O)NC(=O)c1cc(-n2c(=O)cc(C(F)(F)F)n(C)c2=O)c(F)cc1Cl [saflufenacil] | > 10000 nM | > 10000 nM | > 10000 nM | > 10000 nM | > 10000 nM
